Read-outs that look alike come from different tables or passages of the source.
How the values were obtained:
HDAC1 = HDAC1 (Homo sapiens (Human), UniProt Q13547); experiment: HDAC activity inhibition assay, HDAC1; type: biochemical; conditions: Table 1; 2 hours pre-incubation
Method: (§1) The HDAC activity inhibition assay was performed as follows to determine the ability of a test compound to inhibit HDAC enzymatic activity. […] Following pre-incubation, Fluor-de-Lys™ substrate (Enzo Life Sciences, Plymouth Meeting, Pa., BML-KI104-0050) was added to a final concentration of 10 μM and plates were further incubated for 30 minutes at room temperature. […] IC50 values were calculated by using a sigmoidal dose-response (variable slope) equation in GraphPad Prism® 5 for Windows (GraphPad Software, La Jolla, Calif.).

HDAC2 = HDAC2 (Homo sapiens (Human), UniProt Q92769); experiment: HDAC activity inhibition assay, HDAC2; type: biochemical
Method: as §1

HDAC3/NcoR2 = HDAC3/NcoR2 (Homo sapiens (Human), UniProt O15379); experiment: HDAC activity inhibition assay, HDAC3/NcoR2; type: biochemical
Method: as §1

[1] = Acid stability determination; type: physicochemical; conditions: 100 μM in 0.01 M HCl, 50° C.
Method: A 100 μM solution of test compound was prepared by dilution of a 10 mM DMSO stock solution in a 0.01 M solution of HCl in deionized water. Immediately after mixing, an aliquot (100 μL) was sampled and analyzed by HPLC/UV. The area under the compound peak was determined and used as the time zero reference point. The remainder of the acid sample was incubated at 50° C. and samples were taken after 2, 4, and 24 hours of incubation. On a few occasions, samples were taken at 30 rather than 24 hours. These were analyzed by the same HPLC/UV method and the area of the peak corresponding to the test compound was measured. Percent remaining at a given time point was then calculated as the ratio of the area under the peak after incubation to that at time zero times 100. In those cases where a 30 hour time point was recorded, the percent remaining at 24 hours was obtained by interpolation of the percent remaining versus time curve assuming a unimolecular process, i.e. a monoexponential decay. Percent remaining after 24 hours incubation are presented in Tables 2 and 4 below, where A corresponds to more than 60%, B is between 40 and 60%, C covers 20 to 40% and D means less than 20%.

Frataxin (FXN) mRNA = experiment: Effect of HDAC inhibitors on frataxin (FXN) mRNA expression in Friedreich's ataxia patient primary lymphocytes; type: cell-based, human; conditions: Homo sapiens, Lymphocyte; Friedreich's ataxia patient primary lymphocytes, 48 hours; read-out: FXN 2x (concentration required for a 2-fold increase in FXN mRNA)
Method: Blood is collected from Friedreich's ataxia patient donors into tubes containing the anti-coagulant EDTA. Primary lymphocytes are isolated using Lymphocyte Separation Medium (MP Biomedicals, Solon, Ohio) following the manufacturer's instructions and including a few modifications made by Repligen. After a final wash in Phosphate Buffered Saline (PBS), the cells are distributed into a 6-well cell culture plate in cell growth medium. The test HDAC inhibitor compound is added to cells in a dose escalating manner (usually concentrations range from 1 to 10 μM) and 0.1% DMSO is added to one well of cells as a no treatment control. Cells are incubated for 48 hours at 37° C. in a CO2 incubator; cell counts are taken using a Countess automated cell counter (Invitrogen, Carlsbad, Calif.). Equivalent numbers of cells for all treatment conditions are pelleted by centrifugation and resuspended in cell lysis buffer. Total RNA is isolated from approximately 1×10^6 primary lymphocytes using a RNeasy Mini Kit (Qiagen, Valencia, Calif.), following the manufacturer's instructions and including an optional on-column DNAse digestion step. The isolation is performed either manually or using the QIAcube (Qiagen, Valencia, Calif.), an instrument that automates much of the isolation procedure. The RNA yield and concentration is determined using a Nanodrop spectrophotometer (Thermo Fisher Scientific, Waltham, Mass.) and depending on the RNA concentration, one of two protocols is used to measure frataxin (FXN) transcript levels. For samples containing at least 15 ng/μL RNA a TaqMan® Probe-based (Applied Biosystems, Carlsbad, Calif.) qRT-PCR method is used, while for samples containing less than 15 ng/μL RNA a SYBR Green qRT-PCR method is used. In the TaqMan® Probe-based method specific primer/probe pairs for FXN and GAPDH are multiplexed in each reaction. In the SYBR Green method FXN and GAPDH are amplified in separate reactions. In both methods each RNA sample is analyzed in triplicate (preferably) or duplicate (minimally) using a one-step qRT-PCR master mix that contains all the components necessary for cDNA synthesis and PCR amplification in a single, continuous reaction. After cycling is complete, MxPro Software (Agilent Technologies, Santa Clara, Calif.) is used to analyze the collected data and determine the relative amount of FXN mRNA compared to a control sample. An adaptive baseline method is used for baseline correction whereby an algorithm automatically selects the appropriate baseline cycles for each well and each dye. An amplification-based threshold is set and the corresponding threshold cycle, or Ct, is obtained for calculating target concentration. The Ct values for each target gene (FXN and GAPDH) for each replicate series are averaged. The amount of FXN (or GAPDH) in the sample is determined as the relative quantity to the calibrator where the calibrator sample is assigned an arbitrary quantity of 1. The following equation is used: Relative quantity to the calibrator=2^−ΔCt where ΔCt=(Ct_gene)unknown−(Ct_gene)calibrator, gene is either FXN or GAPDH, calibrator is a DMSO control sample, and unknown is a HDACi treated sample. The relative quantity of FXN is normalized to cell number and RNA input. Data is reported in Tables 2 and 4 below, where the concentration required for a 2-fold increase in FXN mRNA is reported as A if less than 5 μM, B if between 5 and 10 μM, C if greater than 10 μM.

[2] = Table 1, 2 hours pre-incubation

HDAC2, sequence (Q92769 whole entry): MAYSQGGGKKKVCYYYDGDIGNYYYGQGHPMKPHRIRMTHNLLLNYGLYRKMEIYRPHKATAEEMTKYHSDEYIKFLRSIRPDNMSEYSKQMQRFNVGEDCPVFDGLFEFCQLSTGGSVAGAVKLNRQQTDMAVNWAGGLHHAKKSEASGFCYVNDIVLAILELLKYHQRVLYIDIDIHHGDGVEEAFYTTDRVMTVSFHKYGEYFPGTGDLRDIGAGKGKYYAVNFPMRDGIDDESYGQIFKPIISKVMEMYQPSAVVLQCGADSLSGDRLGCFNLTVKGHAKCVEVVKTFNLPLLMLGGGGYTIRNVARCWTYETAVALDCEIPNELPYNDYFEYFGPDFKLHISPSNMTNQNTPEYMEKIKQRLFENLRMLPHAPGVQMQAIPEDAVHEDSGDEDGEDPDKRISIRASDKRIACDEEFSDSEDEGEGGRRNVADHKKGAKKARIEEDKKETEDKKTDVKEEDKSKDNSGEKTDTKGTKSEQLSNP
HDAC3/NcoR2, sequence (O15379 whole entry): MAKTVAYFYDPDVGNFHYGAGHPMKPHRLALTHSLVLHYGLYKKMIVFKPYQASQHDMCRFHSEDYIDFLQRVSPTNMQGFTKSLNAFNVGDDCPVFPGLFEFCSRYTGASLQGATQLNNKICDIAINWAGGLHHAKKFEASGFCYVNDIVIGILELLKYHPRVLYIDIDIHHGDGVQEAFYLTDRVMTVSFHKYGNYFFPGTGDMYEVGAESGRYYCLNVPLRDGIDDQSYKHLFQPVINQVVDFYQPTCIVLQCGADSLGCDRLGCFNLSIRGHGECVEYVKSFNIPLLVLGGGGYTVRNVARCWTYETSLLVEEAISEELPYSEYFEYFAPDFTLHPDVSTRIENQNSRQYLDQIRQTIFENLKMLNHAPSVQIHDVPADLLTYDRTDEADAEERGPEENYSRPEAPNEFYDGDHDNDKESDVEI
HDAC3/NcoR2, sequence (Q9Y618 395-489 partner): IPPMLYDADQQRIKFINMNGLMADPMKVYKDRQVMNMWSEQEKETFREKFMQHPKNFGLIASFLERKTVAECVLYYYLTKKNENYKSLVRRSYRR
HDAC1, sequence (Q13547 whole entry): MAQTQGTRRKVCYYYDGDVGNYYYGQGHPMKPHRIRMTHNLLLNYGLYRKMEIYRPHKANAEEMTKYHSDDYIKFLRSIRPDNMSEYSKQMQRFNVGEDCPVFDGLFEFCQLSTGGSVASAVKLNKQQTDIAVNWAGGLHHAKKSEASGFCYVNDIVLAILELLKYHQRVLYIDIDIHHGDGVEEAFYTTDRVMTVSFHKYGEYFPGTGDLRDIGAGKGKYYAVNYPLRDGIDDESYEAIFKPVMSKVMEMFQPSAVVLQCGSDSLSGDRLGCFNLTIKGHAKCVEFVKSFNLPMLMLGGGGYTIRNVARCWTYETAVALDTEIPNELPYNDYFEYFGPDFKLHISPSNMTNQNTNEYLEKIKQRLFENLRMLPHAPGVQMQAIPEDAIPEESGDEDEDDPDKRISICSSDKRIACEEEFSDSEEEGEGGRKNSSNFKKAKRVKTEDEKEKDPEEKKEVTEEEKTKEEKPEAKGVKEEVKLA

SMILES | IC50 (HDAC1) [nM] | IC50 (HDAC2; [2]) [nM] | IC50 (HDAC3/NcoR2; [2]) [nM] | acid stability (percent remaining after 24 hours incubation) [1] | EC (2-fold FXN mRNA) (Frataxin (FXN) mRNA) [µM] | IC50 (HDAC2) [nM] | IC50 (HDAC3/NcoR2) [nM]
Nc1ccccc1NC(=O)c1ccc(C=C2CN(Cc3cccnc3)C2)c(Cl)c1 [F6] |  | 1000 to 5000 |  |  |  |  | 
Cn1cc(/C=C/C(=O)Nc2ccccc2N)cn1 [A2] | 5000 to 10000 | 10000 to 20000 | < 1000 | B (B is between 40 and 60%) |  |  | 
Nc1ccccc1NC(=O)/C=C/c1cnc2ccccn12 [A6, (E)-N-(2-aminophenyl)-3-(imidazo[1,2-a]pyridin-3-yl)acrylamide] | 5000 to 10000 | 5000 to 10000 | < 1000 |  |  |  | 
CN(CCCn1cc(/C=C/C(=O)Nc2ccccc2N)cn1)c1ccccc1 [D12] |  |  |  | A (A corresponds to more than 60%) |  |  | 
Cc1cc(/C=C/C(=O)Nc2ccccc2N)on1 [A5] | 10000 to 20000 | 10000 to 20000 | < 1000 | B (B is between 40 and 60%) |  |  | 
Cc1nc(/C=C/C(=O)Nc2ccccc2N)co1 [A4] | > 20000 | > 20000 | 1000 to 5000 |  |  |  | 
Cc1nc(/C=C/C(=O)Nc2ccccc2N)cs1 [A1] | 1000 to 5000 | 5000 to 10000 | < 1000 |  |  |  | 
Cn1cc(/C=C/C(=O)Nc2ccc(F)cc2N)cn1 [C2] |  |  |  |  |  | > 20000 | 1000 to 5000
Nc1ccccc1NC(=O)/C=C/c1cnn(-c2ccccc2)c1 [A11] | 1000 to 5000 | 1000 to 5000 | < 1000 | A (A corresponds to more than 60%) |  |  | 
Nc1ccccc1NC(=O)/C=C/c1cn2ccccc2n1 [A9] | 1000 to 5000 | 1000 to 5000 | < 1000 |  |  |  | 
CCOCc1cn2cc(/C=C/C(=O)Nc3ccccc3N)sc2n1 [E1, (E)-N-(2-aminophenyl)-3-(6-(ethoxymethyl)imidazo[2,1-b]thiazol-2-yl)acrylamide] | 1000 to 5000 | 5000 to 10000 | < 1000 |  |  |  | 
Nc1ccccc1NC(=O)/C=C/c1cnn(CC2CC2)c1 [B1] | 1000 to 5000 | 5000 to 10000 | < 1000 |  |  |  | 
Cc1ncc(/C=C/C(=O)Nc2ccccc2N)s1 [A3] | 5000 to 10000 | 5000 to 10000 | < 1000 |  |  |  | 
Cc1cccc(Cn2cc(/C=C/C(=O)Nc3ccccc3N)cn2)n1 [D6] | 1000 to 5000 | 1000 to 5000 |  |  | > 10 |  | 

Now from value to compound, other results behind:

IC50 (HDAC1) [nM] | IC50 (HDAC2; [2]) [nM] | IC50 (HDAC3/NcoR2; [2]) [nM] | acid stability (percent remaining after 24 hours incubation) [1] | SMILES | EC (2-fold FXN mRNA) (Frataxin (FXN) mRNA) [µM] | IC50 (HDAC2) [nM] | IC50 (HDAC3/NcoR2) [nM]
< 1000 | 1000 to 5000 | < 1000 | B (B is between 40 and 60%) | Nc1ccccc1NC(=O)/C=C/c1cc2ccccn2n1 [A8] |  |  | 
< 1000 | < 1000 | < 1000 |  | Nc1ccccc1NC(=O)/C=C/c1cnn(CCOc2ccc(F)cc2)c1 [B6] |  |  | 
< 1000 | 1000 to 5000 | < 1000 |  | Nc1ccccc1NC(=O)/C=C/c1cnn(C/C=C/c2ccc(F)cc2)c1 [B2] |  |  | 
< 1000 | 1000 to 5000 | < 1000 |  | Nc1ccccc1NC(=O)/C=C/c1cnn(CC(F)(F)c2ccccc2)c1 [D10] | > 10 |  | 
< 1000 | < 1000 | < 1000 |  | Nc1ccccc1NC(=O)/C=C/c1cnn(CCc2c[nH]c3ccccc23)c1 [D13] |  |  | 
1000 to 5000 | 1000 to 5000 | < 1000 |  | Cn1ccc(/C=C/C(=O)Nc2ccccc2N)n1 [A7] |  |  | 
1000 to 5000 | 1000 to 5000 | < 1000 |  | CCn1cc(/C=C/C(=O)Nc2ccccc2N)cn1 [C1] |  |  | 
1000 to 5000 | 1000 to 5000 | < 1000 |  | Nc1ccccc1NC(=O)/C=C/c1cn2ccnc2s1 [A10] |  |  | 
< 1000 | < 1000 | < 1000 |  | Nc1ccccc1NC(=O)/C=C/c1cnn(CCOc2cc(F)cc(Cl)c2)c1 [B5, (E)-N-(2-aminophenyl)-3-(1-(2-(3-chloro-5-fluorophenoxy)ethyl)-1H-pyrazol-4-yl)acrylamide] |  |  | 
< 1000 | < 1000 | < 1000 |  | Nc1ccccc1NC(=O)/C=C/c1cnn(CCCOc2ccccc2)c1 [D15] |  |  | 
< 1000 | 1000 to 5000 | < 1000 | A (A corresponds to more than 60%) | Nc1ccccc1NC(=O)/C=C/c1csc(C/C=C/c2ccccc2)n1 [E2, (E)-N-(2-aminophenyl)-3-(2-cinnamylthiazol-4-yl)acrylamide] |  |  | 
1000 to 5000 | 5000 to 10000 | < 1000 |  | Cn1cnc(/C=C/C(=O)Nc2ccccc2N)c1 [A12] |  |  | 
1000 to 5000 | 1000 to 5000 | < 1000 |  | Nc1cc(F)ccc1NC(=O)/C=C/c1cnn(CCOc2ccccc2)c1 [D16] |  |  | 
< 1000 | < 1000 | < 1000 |  | Nc1ccccc1NC(=O)/C=C/c1cnn(CCOc2cc(F)cc(F)c2)c1 [B3, (E)-N-(2-aminophenyl)-3-(1-(2-(3,5-difluorophenoxy)ethyl)-1H-pyrazol-4-yl)acrylamide] |  |  | 
< 1000 |  | < 1000 | B (B is between 40 and 60%) | Nc1ccccc1NC(=O)c1ccc(CC2CN(Cc3ccc4cc[nH]c4c3)C2)cc1 [F4] | < 5 |  | 
< 1000 | < 1000 | < 1000 |  | Nc1ccccc1NC(=O)/C=C/c1cnn(CC/C=C/c2ccccc2)c1 [D11] | 5 to 10 |  | 
< 1000 | < 1000 | < 1000 |  | Nc1ccccc1NC(=O)/C=C/c1cnn(CCCc2ccccc2)c1 [D8] | > 10 |  | 
< 1000 | 1000 to 5000 | < 1000 | B (B is between 40 and 60%) | Nc1ccccc1NC(=O)c1ccc(C=C2CCN(C(=O)OCc3ccccc3)CC2)cc1 [F1] |  |  | 
< 1000 | 1000 to 5000 | < 1000 |  | Nc1ccccc1NC(=O)/C=C/c1cnn(Cc2ccc(F)cc2)c1 [D5] |  |  | 
< 1000 | 1000 to 5000 | < 1000 |  | Nc1ccccc1NC(=O)/C=C/c1cnn(CCOc2ccc(C(F)(F)F)cc2)c1 [B4] |  |  | 
< 1000 | 1000 to 5000 | < 1000 |  | Nc1ccccc1NC(=O)c1ccc(C=C2CN(Cc3ccc4cc[nH]c4c3)C2)c(Cl)c1 [F5, 4-((1-((1H-indol-6-yl)methyl)azetidin-3-ylidene)methyl)-N-(2-aminophenyl)-3-chlorobenzamide] |  |  | 

Reference: patent US9908899B2 (BIOMARIN PHARMACEUTICAL INC., priority 2011, dated 2018)
